Data published in US9421209B2, “Kinase modulators” (Rhizen Pharmaceuticals SA, priority 2009, dated 2016).
Where two headings read alike, the source gives them in different places.

How the values were obtained:
P110β = P110β (Homo sapiens, UniProt P42338); assay: Fluorescent (HTRF) determination of PI3K enzyme activity, β isoform; format: biochemical
Excerpt: Assay 1: Fluorescent determination of PI3Kinase Kinase enzyme activity
Phosphoinositide 3 kinases (PI3K) belong to a class of lipid kinases that play a critical role in the regulation of several key cellular processes. The PI3K are capable of phosphorylating the 3-hydroxy position of phosphoinositols thereby generating second messengers involved in downstream signalling events. The homogenous time resolved fluorescence (HTRF) assay allows detection of 3,4,5-triphosphate (PIP3) formed as a result of phosphorylation of phosphotidylinositol 4,5-biphosphate (PIP2) by PI3K isoforms such as α, β, γ or δ.
PI3K isoform activity for α, β, γ or δ was determined using a PI3K human HTRF™ Assay Kit (Millipore, Billerica, Mass.) with modifications. All incubations were carried out at room temperature. Briefly, 0.5 μl of 40× inhibitor (in 100% DMSO) or 100% DMSO were added to each well of a 384-well black plate (Greiner Bio-One, Monroe, N.C.) containing 14.5 μl 1× reaction buffer/PIP2 (10 mM MgCl2, 5 mM DTT, 1.38 μM PIP2) mix with or without enzyme and incubated for 10 min. After the initial incubation, 5 μl/well of 400 μM ATP was added and incubated for an additional 30 minutes. Reaction was terminated by adding 5 μl/well stop solution (Millipore, Billerica, Mass.). Five microliters of detection mix (Millipore, Billerica, Mass.) were then added to each well and was incubated for 6-18 h in the dark. HRTF ratio was measured on a microplate reader (BMG Labtech., Germany) at an excitation wavelength of 337 nm and emission wavelengths of 665 and 620 nm with an integration time of […]. Data were analyzed using Graphpad Prism (Graphpad software; San Diego Calif.) for IC50 determination. Percent inhibition was calculated based on the values for the blank and enzyme controls. The results are provided below in Table 2 & 3.

P110 δ/Pi3K δ = P110 δ/Pi3K δ (Homo sapiens, UniProt O00329); assay: Fluorescent (HTRF) determination of PI3K enzyme activity, δ isoform; format: biochemical; parameters: inhibition: dose or concentration left out as unconfirmed; conditions: for IC50: read-out: P110 δ/ Pi3K δ IC 50 nM
P110 δ/Pi3K δ, sequence (O00329 whole entry, canonical isoform): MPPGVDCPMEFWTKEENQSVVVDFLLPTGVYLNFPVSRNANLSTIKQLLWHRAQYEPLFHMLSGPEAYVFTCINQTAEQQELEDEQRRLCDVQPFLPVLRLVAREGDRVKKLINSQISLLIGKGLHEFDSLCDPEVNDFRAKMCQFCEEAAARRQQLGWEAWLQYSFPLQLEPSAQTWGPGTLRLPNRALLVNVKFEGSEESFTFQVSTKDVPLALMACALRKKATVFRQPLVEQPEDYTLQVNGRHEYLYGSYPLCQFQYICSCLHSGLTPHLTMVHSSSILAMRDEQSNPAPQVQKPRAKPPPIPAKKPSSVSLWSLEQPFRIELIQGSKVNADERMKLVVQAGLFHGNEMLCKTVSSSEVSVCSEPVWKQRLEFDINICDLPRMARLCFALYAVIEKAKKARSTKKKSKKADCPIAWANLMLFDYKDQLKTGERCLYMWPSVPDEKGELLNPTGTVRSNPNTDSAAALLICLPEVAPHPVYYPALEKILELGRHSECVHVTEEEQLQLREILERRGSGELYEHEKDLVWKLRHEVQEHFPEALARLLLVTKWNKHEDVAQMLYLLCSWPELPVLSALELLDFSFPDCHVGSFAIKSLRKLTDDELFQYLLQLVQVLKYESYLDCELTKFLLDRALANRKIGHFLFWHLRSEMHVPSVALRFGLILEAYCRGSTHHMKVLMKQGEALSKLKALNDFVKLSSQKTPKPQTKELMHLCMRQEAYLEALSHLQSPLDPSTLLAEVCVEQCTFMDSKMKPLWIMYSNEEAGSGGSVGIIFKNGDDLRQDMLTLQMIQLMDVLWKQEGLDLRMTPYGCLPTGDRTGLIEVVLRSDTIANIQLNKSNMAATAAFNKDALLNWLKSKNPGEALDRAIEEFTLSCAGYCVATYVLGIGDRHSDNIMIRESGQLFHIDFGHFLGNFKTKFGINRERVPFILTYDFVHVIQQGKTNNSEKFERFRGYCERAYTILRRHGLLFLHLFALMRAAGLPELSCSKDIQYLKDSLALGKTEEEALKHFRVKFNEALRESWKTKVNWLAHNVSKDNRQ
P110 δ/Pi3K δ, sequence (P27986 whole entry partner, canonical isoform): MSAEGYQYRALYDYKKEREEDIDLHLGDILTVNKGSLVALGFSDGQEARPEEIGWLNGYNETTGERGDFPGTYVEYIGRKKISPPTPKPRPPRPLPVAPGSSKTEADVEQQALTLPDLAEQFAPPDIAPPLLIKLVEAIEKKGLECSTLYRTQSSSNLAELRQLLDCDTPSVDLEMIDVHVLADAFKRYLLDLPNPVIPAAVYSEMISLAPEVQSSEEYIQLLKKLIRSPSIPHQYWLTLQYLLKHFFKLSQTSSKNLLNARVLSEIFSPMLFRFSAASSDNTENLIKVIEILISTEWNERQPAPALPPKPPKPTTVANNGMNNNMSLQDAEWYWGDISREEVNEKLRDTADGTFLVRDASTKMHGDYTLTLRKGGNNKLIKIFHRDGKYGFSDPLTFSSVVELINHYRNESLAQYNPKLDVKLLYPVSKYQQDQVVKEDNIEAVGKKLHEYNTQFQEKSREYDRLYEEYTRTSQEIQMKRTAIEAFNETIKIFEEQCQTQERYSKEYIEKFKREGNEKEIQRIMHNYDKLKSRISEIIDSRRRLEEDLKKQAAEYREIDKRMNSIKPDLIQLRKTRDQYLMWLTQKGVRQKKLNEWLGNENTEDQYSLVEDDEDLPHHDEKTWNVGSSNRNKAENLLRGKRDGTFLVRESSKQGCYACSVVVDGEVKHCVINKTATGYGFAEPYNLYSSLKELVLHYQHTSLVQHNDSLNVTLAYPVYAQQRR
Summary of the method: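 IC50 fitted from percent inhibition relative to blank and enzyme-only wells. Human PI3Kδ converts PIP2 to PIP3 after addition of 400 μM ATP solution, 30 min at room temperature. Product read by time-resolved FRET after stop and 6–18 h dark incubation with detection reagents.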

P110β, sequence (P42338 whole entry, canonical isoform): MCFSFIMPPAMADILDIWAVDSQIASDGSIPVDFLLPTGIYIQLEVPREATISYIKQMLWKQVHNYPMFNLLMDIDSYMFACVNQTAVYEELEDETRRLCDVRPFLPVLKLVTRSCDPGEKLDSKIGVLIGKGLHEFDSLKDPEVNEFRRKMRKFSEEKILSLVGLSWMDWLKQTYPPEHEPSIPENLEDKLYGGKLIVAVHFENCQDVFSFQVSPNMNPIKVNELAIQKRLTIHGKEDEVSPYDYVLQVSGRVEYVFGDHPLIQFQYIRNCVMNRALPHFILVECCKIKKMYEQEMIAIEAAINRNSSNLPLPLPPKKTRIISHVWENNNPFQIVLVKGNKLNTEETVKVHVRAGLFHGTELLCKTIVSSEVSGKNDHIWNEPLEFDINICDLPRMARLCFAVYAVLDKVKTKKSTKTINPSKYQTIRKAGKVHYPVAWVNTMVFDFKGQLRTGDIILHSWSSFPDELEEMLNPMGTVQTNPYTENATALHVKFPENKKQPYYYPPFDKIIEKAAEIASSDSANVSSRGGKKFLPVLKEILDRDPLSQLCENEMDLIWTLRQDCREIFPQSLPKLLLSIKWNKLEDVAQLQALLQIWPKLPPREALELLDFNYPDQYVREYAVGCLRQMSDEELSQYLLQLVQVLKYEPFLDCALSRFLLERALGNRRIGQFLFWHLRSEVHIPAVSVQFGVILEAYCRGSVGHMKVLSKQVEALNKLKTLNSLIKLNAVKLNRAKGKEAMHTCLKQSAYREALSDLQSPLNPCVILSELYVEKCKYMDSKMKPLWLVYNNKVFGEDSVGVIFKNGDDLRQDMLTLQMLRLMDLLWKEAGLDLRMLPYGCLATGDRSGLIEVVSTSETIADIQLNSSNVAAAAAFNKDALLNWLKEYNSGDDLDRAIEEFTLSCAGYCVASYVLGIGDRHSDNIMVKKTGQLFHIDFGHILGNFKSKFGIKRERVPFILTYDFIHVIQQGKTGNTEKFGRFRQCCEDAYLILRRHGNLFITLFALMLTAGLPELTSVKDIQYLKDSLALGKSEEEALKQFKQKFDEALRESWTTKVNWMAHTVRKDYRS
P110β, sequence (P27986 whole entry partner, canonical isoform): as the sequence (P27986 whole entry partner, canonical isoform) above

SMILES	inhibition at 1 µM (P110β)	melting point	inhibition (P110 δ/Pi3K δ)	also measured
Cc1cc(-c2nn(C(C)c3oc4ccccc4c(=O)c3-c3cccc(F)c3)c3ncnc(N)c23)ccn1 (stereo not shown) [Example 135, 2-(1-(4-amino-3-(2-methylpyridin-4-yl)-1H-pyrazolo[3,4-d]pyrimidin-1-yl)ethyl)-3-(3-fluorophenyl)-4H-chromen-4-one]	25 to 50%	266 to 268 °C	< 50%	–
COc1c(F)cc(-c2nn(Cc3oc4ccc(F)cc4c(=O)c3-c3cccc(F)c3)c3ncnc(N)c23)cc1F [Example 127, 2-((4-amino-3-(3,5-difluoro-4-methoxyphenyl)-1H-pyrazolo[3,4-d]pyrimidin-1-yl)methyl)-6-fluoro-3-(3-fluorophenyl)-4H-chromen-4-one]	50 to 100%	–	–	–
CC(c1oc2ccccc2c(=O)c1-c1cccc(F)c1)n1nc(-c2csc(CO)c2)c2c(N)ncnc21 (stereo not shown) [Example 114, 2-(1-(4-amino-3-(5-(hydroxymethyl)thiophen-3-yl)-1H-pyrazolo[3,4-d]pyrimidin-1-yl)ethyl)-3-(3-fluorophenyl)-4H-chromen-4-one]	< 25%	154 to 156 °C	50 to 100%	–
Cc1c[nH]c2cc(-c3nn(C(C)c4oc5ccccc5c(=O)c4-c4cccc(F)c4)c4ncnc(N)c34)ccc12 (stereo not shown) [Example 117, 2-(1-(4-amino-3-(3-methyl-1H-indol-6-yl)-1H-pyrazolo[3,4-d]pyrimidin-1-yl)ethyl)-3-(3-fluorophenyl)-4H-chromen-4-one]	–	262 to 265 °C	–	% inhibition (1 μM) P110β (P110β): + (+ is less than equal to 25% inhibition at 1 μM); P110 δ/ Pi3K δ % inhibition* (P110 δ/Pi3K δ; @ 0.3 uM): ++ (++ is less than equal to 100% inhibition but more than equal to 50% at 1 μM)
CC(c1oc2ccccc2c(=O)c1-c1cccc(F)c1)n1nc(-c2cccc3c2oc2ccccc23)c2c(N)ncnc21 (stereo not shown) [Example 138, 2-(1-(4-amino-3-(dibenzo[b,d]furan-4-yl)-1H-pyrazolo[3,4-d]pyrimidin-1-yl)ethyl)-3-(3-fluorophenyl)-4H-chromen-4-one]	25 to 50%	238 to 240 °C	–	–
COc1c(F)cc(-c2nn(C(C)c3oc4ccccc4c(=O)c3-c3cccc(F)c3)c3ncnc(N)c23)cc1F (stereo not shown) [Example 126, 2-(1-(4-amino-3-(3,5-difluoro-4-methoxyphenyl)-1H-pyrazolo[3,4-d]pyrimidin-1-yl)ethyl)-3-(3-fluorophenyl)-4H-chromen-4-one]	< 25%	–	–	–
Cc1n[nH]c2cc(-c3nn([C@H](C)c4oc5ccccc5c(=O)c4-c4cccc(F)c4)c4ncnc(N)c34)ccc12 (single isomer, unassigned) [Example 129, (−)-2-(1-(4-amino-3-(3-methyl-1H-indazol-6-yl)-1H-pyrazolo[3,4-d]pyrimidin-1-yl)ethyl)-3-(3-fluorophenyl)-4H-chromen-4-one]	–	157 to 160 °C	–	% inhibition (1 μM) P110β (P110β; 1 µM): ++ (++ is less than equal to 50% inhibition but more than equal to 25% at 1 μM); IC50 (P110 δ/Pi3K δ): > 500 nM
CC(c1oc2ccccc2c(=O)c1-c1cccc(F)c1)n1nc(-c2ccc3c(c2)OCCCO3)c2c(N)ncnc21 (stereo not shown) [Example 136, 2-(1-(4-amino-3-(3,4-dihydro-2H-benzo[b][1,4]dioxepin-7-yl)-1H-pyrazolo[3,4-d]pyrimidin-1-yl)ethyl)-3-(3-fluorophenyl)-4H-chromen-4-one]	25 to 50%	234 to 237 °C	< 50%	–
O=c1c(-c2ccc(F)cc2)c(CN2CCOCC2)oc2ccc(Br)cc12 [Example 17, 6-Bromo-3-(4-fluorophenyl)-2-(morpholinomethyl)-4H-chromen-4-one]	< 25%	–	–	–
Nc1ncnc2c1ncn2Cc1oc2ccccc2c(=O)c1-c1ccccc1F [Example 33, 2-((6-Amino-9H-purin-9-yl)methyl)-3-(2-fluorophenyl)-4H-chromen-4-one]	–	202 to 205 °C	–	inhibition at 1 µM (P110 δ/Pi3K δ): < 50%
CC(c1oc2ccccc2c(=O)c1-c1ccccc1)n1nc(-c2cn[nH]c2)c2c(N)ncnc21 (stereo not shown) [Example 69, 2-(1-(4-amino-3-(1H-pyrazol-4-yl)-1H-pyrazolo[3,4-d]pyrimidin-1-yl)ethyl)-3-phenyl-4H-chromen-4-one]	–	214 to 217 °C	–	inhibition at 1 µM (P110 δ/Pi3K δ): 50 to 100%
CCC(c1oc2ccccc2c(=O)c1-c1ccc(F)cc1)n1cnc2c(N)ncnc21 (stereo not shown) [Example 37, 2-(1-(6-Amino-9H-purin-9-yl)propyl)-3-(4-fluorophenyl)-4H-chromen-4-one]	–	223 to 227 °C	–	inhibition at 1 µM (P110 δ/Pi3K δ): < 50%

More lines, main results first:

inhibition at 1 µM (P110β)	melting point	inhibition (P110 δ/Pi3K δ)	SMILES	also measured
< 25%	226 to 229 °C	< 50%	CC(c1oc2ccccc2c(=O)c1-c1cccc(F)c1)n1nc(-c2ccc(Cl)s2)c2c(N)ncnc21 (stereo not shown) [Example 152, 2-(1-(4-amino-3-(5-chlorothiophen-2-yl)-1H-pyrazolo[3,4-d]pyrimidin-1-yl)ethyl)-3-(3-fluorophenyl)-4H-chromen-4-one]	–
< 25%	218 to 222 °C	< 50%	Cc1noc(C)c1-c1nn(C(C)c2oc3ccccc3c(=O)c2-c2cccc(F)c2)c2ncnc(N)c12 (stereo not shown) [Example 153, 2-(1-(4-amino-3-(3,5-dimethylisoxazol-4-yl)-1H-pyrazolo[3,4-d]pyrimidin-1-yl)ethyl)-3-(3-fluorophenyl)-4H-chromen-4-one]	–
50 to 100%	224 to 226 °C	50 to 100%	CC(C)Oc1ccc(-c2nn(C(C)c3oc4ccccc4c(=O)c3-c3cccc(F)c3)c3ncnc(N)c23)cc1 (stereo not shown) [Example 144, 2-(1-(4-amino-3-(4-isopropoxyphenyl)-1H-pyrazolo[3,4-d]pyrimidin-1-yl)ethyl)-3-(3-fluorophenyl)-4H-chromen-4-one]	IC50 (P110 δ/Pi3K δ): < 250 nM
25 to 50%	176 to 178 °C	< 50%	CC(c1oc2ccccc2c(=O)c1-c1cccc(F)c1)n1nc(-c2ccc(OCc3ccccc3)cc2)c2c(N)ncnc21 (stereo not shown) [Example 147, 2-(1-(4-amino-3-(4-(benzyloxy)phenyl)-1H-pyrazolo[3,4-d]pyrimidin-1-yl)ethyl)-3-(3-fluorophenyl)-4H-chromen-4-one]	–
25 to 50%	229 to 232 °C	< 50%	CCOc1ccc(-c2nn(C(C)c3oc4ccccc4c(=O)c3-c3cccc(F)c3)c3ncnc(N)c23)cc1 (stereo not shown) [Example 156, 2-(1-(4-amino-3-(4-ethoxyphenyl)-1H-pyrazolo[3,4-d]pyrimidin-1-yl)ethyl)-3-(3-fluorophenyl)-4H-chromen-4-one]	–
50 to 100%	214 to 217 °C	50 to 100%	CC(c1oc2ccccc2c(=O)c1-c1cccc(F)c1)n1nc(-c2ccc(N(C)C)cc2)c2c(N)ncnc21 (stereo not shown) [Example 148, 2-(1-(4-amino-3-(4-(dimethylamino)phenyl)-1H-pyrazolo[3,4-d]pyrimidin-1-yl)ethyl)-3-(3-fluorophenyl)-4H-chromen-4-one]	–
25 to 50%	259 to 262 °C	< 50%	CC(c1oc2ccccc2c(=O)c1-c1cccc(F)c1)n1nc(-c2ccc(S(C)(=O)=O)cc2)c2c(N)ncnc21 (stereo not shown) [Example 149, 2-(1-(4-amino-3-(4-(methylsulfonyl)phenyl)-1H-pyrazolo[3,4-d]pyrimidin-1-yl)ethyl)-3-(3-fluorophenyl)-4H-chromen-4-one]	–
25 to 50%	242 to 245 °C	50 to 100%	CC(c1oc2ccccc2c(=O)c1-c1cccc(F)c1)n1nc(-c2cc3ccccc3s2)c2c(N)ncnc21 (stereo not shown) [Example 151, 2-(1-(4-amino-3-(benzo[b]thiophen-2-yl)-1H-pyrazolo[3,4-d]pyrimidin-1-yl)ethyl)-3-(3-fluorophenyl)-4H-chromen-4-one]	IC50 (P110 δ/Pi3K δ): < 250 nM
< 25%	218 to 221 °C	50 to 100%	CC(=O)c1ccc(-c2nn(C(C)c3oc4ccccc4c(=O)c3-c3cccc(F)c3)c3ncnc(N)c23)cc1 (stereo not shown) [Example 146, 2-(1-(3-(4-acetylphenyl)-4-amino-1H-pyrazolo[3,4-d]pyrimidin-1-yl)ethyl)-3-(3-fluorophenyl)-4H-chromen-4-one]	–
< 25%	178 to 182 °C	< 50%	CCCOc1cccc(-c2nn(C(C)c3oc4ccccc4c(=O)c3-c3cccc(F)c3)c3ncnc(N)c23)c1 (stereo not shown) [Example 154, 2-(1-(4-amino-3-(3-propoxyphenyl)-1H-pyrazolo[3,4-d]pyrimidin-1-yl)ethyl)-3-(3-fluorophenyl)-4H-chromen-4-one]	–
